Results from ChEMBL document CHEMBL1136281, “Design and synthesis of novel chrysene-linked pyrrolo[2,1-c][1,4]-benzodiazepine hybrids as potential DNA-binding agents” (Bioorg Med Chem Lett, 2003).

Assays:
NCI-H460 = experiment: In vitro primary anticancer activity was determined in NCI-H460 cell line (Lung) at the concentration of […]; format: functional, Homo sapiens
MCF7 = experiment: In vitro primary anticancer activity was determined in MCF-7 cell line (breast) at the concentration of […]; format: functional, Homo sapiens
SF-268 = experiment: In vitro primary anticancer activity was determined in SF-268 cell line (CNS) at the concentration of […]; format: functional, Homo sapiens
PC-6 = experiment: In vitro cytotoxicity was evaluated in PC6 cell line; format: functional, cell-based; details: Homo sapiens
NCI-H226 = experiment: Anticancer activity against one non-small cell lung cancer (NCI-H226 cell line); format: functional; details: Homo sapiens, read-out: LC50 (the source's name)
UACC-62 = experiment: Anticancer activity against one melanoma cancer (UACC-62 cell line); format: functional; details: Homo sapiens, read-out: LC50 (the source's name)
A498 = experiment: Anticancer activity against one renal cancer (A498 cell line); format: functional; details: Homo sapiens, read-out: LC50 (the source's name)

Work on `COc1cc2c(cc1OCCCC(=O)Nc1cc3c4ccccc4ccc3c3ccccc13)N=C[C@@H]1CCCN1C2=O` yielded a Growth (NCI-H460) of 105%, a Growth (MCF7) of 56% and a Growth (SF-268) of 121%.
`COc1cc2c(cc1O)N=C[C@@H]1CCCN1C2=O` gave an IC50 (PC-6) of 0.33 µM.
`COc1cc2c(cc1OCCCCC(=O)Nc1cc3c4ccccc4ccc3c3ccccc13)N=C[C@@H]1CCCN1C2=O` showed a Growth (NCI-H460) of 0%, a Growth (MCF7) of 1% and a CC50 (NCI-H226) of 4.5 µM. For the same compound, the CC50 (UACC-62) was 4.07 µM, the CC50 (A498) was 6.29 µM and the Growth (SF-268) was 12%.
